Experimental data from ChEMBL document CHEMBL5620354, “Development of isoselenazolium chlorides as selective pyruvate kinase isoform M2 inhibitors” (Eur J Med Chem, 2023).

How the values were obtained:
[1] = Cytotoxicity against rat H9c2 cells assessed as inhibition of cell growth incubated for 48 hrs by MTT assay; assay type: toxicity, cell-based
MCF7 = assay: cells; details: Homo sapiens, MCF7, 48 h
Description: Cytotoxicity against human MCF7 cells assessed as inhibition of cell growth incubated for 48 hrs by MTT assay

Pyruvate kinase PKM [2] = molecular target: T1, Pyruvate kinase PKM (Homo sapiens, UniProt P14618); assay: Inhibition of N-terminal his8-tagged PKM2 (unknown origin)
Target sequence in this assay (P14618 whole entry): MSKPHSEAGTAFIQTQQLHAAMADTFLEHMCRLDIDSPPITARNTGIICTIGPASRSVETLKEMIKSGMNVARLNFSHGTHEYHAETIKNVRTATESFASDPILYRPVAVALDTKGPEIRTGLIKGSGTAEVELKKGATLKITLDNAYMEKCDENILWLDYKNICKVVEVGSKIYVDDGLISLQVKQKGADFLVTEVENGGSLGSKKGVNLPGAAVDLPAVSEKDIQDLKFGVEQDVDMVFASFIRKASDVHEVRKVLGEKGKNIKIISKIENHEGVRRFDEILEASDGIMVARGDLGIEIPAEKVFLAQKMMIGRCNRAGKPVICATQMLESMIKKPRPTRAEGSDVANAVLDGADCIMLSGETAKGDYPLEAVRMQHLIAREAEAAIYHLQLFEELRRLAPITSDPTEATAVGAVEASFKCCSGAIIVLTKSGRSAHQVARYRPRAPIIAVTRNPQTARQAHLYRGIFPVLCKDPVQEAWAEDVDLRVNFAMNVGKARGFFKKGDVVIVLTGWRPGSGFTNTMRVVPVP

Jurkat = assay: Cytotoxicity against human Jurkat cells assessed as inhibition of cell growth incubated for 48 hrs by MTT assay; assay type: functional, cell-based
HCC1937 = assay: Cytotoxicity against human HCC1937 cells assessed as inhibition of cell growth incubated for 48 hrs by MTT assay; assay type: functional, cell-based; details: HCC1937, 48 h
Oryctolagus cuniculus = species: Oryctolagus cuniculus; assay: Inhibition of rabbit LDH at 1 uM relative to control
Pyruvate kinase PKM [3] = molecular target: T1, Pyruvate kinase PKM; assay: Inhibition of PKM1 (unknown origin); parameters: concentration or dose not given beside the values; details: concentration not given here
Target sequence in this assay (P14618 2-531 limits assumed): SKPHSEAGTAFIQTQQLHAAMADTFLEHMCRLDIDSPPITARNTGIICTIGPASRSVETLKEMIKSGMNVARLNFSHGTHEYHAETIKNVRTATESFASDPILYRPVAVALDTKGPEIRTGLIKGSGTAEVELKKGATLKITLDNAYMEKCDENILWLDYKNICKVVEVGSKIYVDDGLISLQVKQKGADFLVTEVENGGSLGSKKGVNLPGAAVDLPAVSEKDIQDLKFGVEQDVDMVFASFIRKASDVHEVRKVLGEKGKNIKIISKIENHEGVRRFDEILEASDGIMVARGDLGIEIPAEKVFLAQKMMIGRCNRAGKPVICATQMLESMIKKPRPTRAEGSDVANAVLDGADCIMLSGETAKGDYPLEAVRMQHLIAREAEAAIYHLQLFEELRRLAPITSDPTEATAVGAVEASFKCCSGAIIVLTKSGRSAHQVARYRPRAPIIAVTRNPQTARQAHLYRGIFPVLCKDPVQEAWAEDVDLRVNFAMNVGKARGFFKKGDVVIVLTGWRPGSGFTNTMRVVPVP

[4] = molecular target: Pyruvate kinase PKLR (Homo sapiens) (UniProt P30613); assay: Inhibition of PKR (unknown origin) at 1 uM relative to control
Sequence of Pyruvate kinase PKLR (Homo sapiens) (P30613 whole entry, looked up): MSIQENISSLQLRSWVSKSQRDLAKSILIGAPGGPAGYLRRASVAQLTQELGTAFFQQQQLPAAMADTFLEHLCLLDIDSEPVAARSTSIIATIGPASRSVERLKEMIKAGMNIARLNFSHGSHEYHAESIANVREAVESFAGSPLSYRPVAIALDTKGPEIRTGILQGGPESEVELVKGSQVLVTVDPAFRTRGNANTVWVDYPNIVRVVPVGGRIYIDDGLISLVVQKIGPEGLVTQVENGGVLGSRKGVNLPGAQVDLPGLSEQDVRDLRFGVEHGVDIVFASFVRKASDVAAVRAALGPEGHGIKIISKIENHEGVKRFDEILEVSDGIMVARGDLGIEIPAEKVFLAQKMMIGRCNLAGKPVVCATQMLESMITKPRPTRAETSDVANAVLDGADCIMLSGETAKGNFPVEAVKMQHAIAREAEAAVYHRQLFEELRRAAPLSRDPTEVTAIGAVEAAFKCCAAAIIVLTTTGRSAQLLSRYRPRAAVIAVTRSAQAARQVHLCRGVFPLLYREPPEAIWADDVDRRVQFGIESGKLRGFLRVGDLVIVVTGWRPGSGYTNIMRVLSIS

A549 = assay: cells; details: Homo sapiens, A549, 48 h
Description: Cytotoxicity against human A549 cells assessed as inhibition of cell growth incubated for 48 hrs by MTT assay

4T1 = assay: Cytotoxicity against mouse 4T1 cells assessed as inhibition of cell growth incubated for 48 hrs by MTT assay; assay type: functional, cell-based; details: 4T1, 48 h
MDA-MB-231 = assay: Cytotoxicity against human MDA-MB-231 cells assessed as inhibition of cell growth incubated for 48 hrs by MTT assay; assay type: functional, cell-based; details: MDA-MB-231, 48 h
Pyruvate kinase PKM [5] = molecular target: T1, Pyruvate kinase PKM; assay: Inhibition of N-terminal his8-tagged PKM2 (unknown origin) in presence of FBP by Michaelis-menten analysis
Target sequence in this assay (P14618 whole entry): as the sequence (P14618 whole entry) above

Pyruvate kinase PKM [6] = molecular target: T1, Pyruvate kinase PKM; assay: Inhibition of PKM2 (unknown origin) assessed as increase in tetramer ratio by analytical size-exclusion chromatography; details: dose 5.0 µM
Target sequence in this assay (P14618 2-531 limits assumed): as the sequence (P14618 2-531 limits assumed) above

Pyruvate kinase PKM [7] = molecular target: T1, Pyruvate kinase PKM; assay: Binding affinity to PKM2 (unknown origin) assessed as protein destabilization by differential scanning fluorimetry; details: dose 2.5-10 µM
Target sequence in this assay (P14618 2-531 limits assumed): as above

Pyruvate kinase PKM [8] = molecular target: T1, Pyruvate kinase PKM; assay: Inhibition of PKM2 (unknown origin) assessed as decrease in monomer population at 5 uM by analytical size-exclusion chromatography relative to control
Target sequence in this assay (P14618 2-531 limits assumed): as above

Pyruvate kinase PKM [9] = molecular target: T1, Pyruvate kinase PKM; assay: Inhibition of PKM2 (unknown origin) assessed as decrease in dimer population by analytical size-exclusion chromatography; details: dose 5.0 µM
Target sequence in this assay (P14618 2-531 limits assumed): as above

Pyruvate kinase PKM [10] = molecular target: T1, Pyruvate kinase PKM; assay: Inhibition of PKM2 (unknown origin) assessed as decrease in dimer population at 5 uM in presence of FBP by analytical size-exclusion chromatography relative to control
Target sequence in this assay (P14618 2-531 limits assumed): as above

Pyruvate kinase PKM [11] = molecular target: T1, Pyruvate kinase PKM; assay: Inhibition of PKM2 (unknown origin) assessed as decrease in dimer population at 5 uM by analytical size-exclusion chromatography relative to control

Compound | IC50 at 48 h [1] [nM] | IC50 (MCF7) [nM] | IC50 (Pyruvate kinase PKM [2]) [nM] | IC50 (Jurkat) [nM] | IC50 (HCC1937) [nM] | inhibition (Oryctolagus cuniculus) [%] | inhibition (Pyruvate kinase PKM [3]) [%] | inhibition [4] [%] | IC50 (A549) [nM] | IC50 (4T1; read-out: IC50) [nM] | IC50 (MDA-MB-231) [nM] | IC50 (Pyruvate kinase PKM [5]) [nM] | IC50 (4T1) [nM] | inhibition (Pyruvate kinase PKM [6]) | Activity (Pyruvate kinase PKM [7]) | inhibition (Pyruvate kinase PKM [8]) [%] | inhibition (Pyruvate kinase PKM [9]) | inhibition (Pyruvate kinase PKM [10]) [%] | inhibition (Pyruvate kinase PKM [11]) [%]
CCCCCCCCCCCCCC(C)(O)c1[se][n+]2ccc(C(=O)OC)cc2c1Br (stereo not drawn) | 3630 | 3790 | > 1000 | 3380 | 2450 | – | – | – | – | – | – | – | – | – | – | – | – | – | –
NC(=O)c1cc[n+]2[se]c(C3(O)C4CC5CC(C4)CC3C5)c(Br)c2c1 (stereo not drawn) | 910 | 610 | 1010 | 910 | 740 | 6 | 21 | 11 | 2210 | 560 | 650 | – | – | – | – | – | – | – | –
COC(=O)c1cc(C)[n+]2[se]c(C3(O)CCCCC3)c(Br)c2c1 | 900 | 300 | 1360 | 450 | 340 | 7 | 10 | 28 | 1120 | 960 | 370 | – | – | – | – | – | – | – | –
OC1(c2[se][n+]3ccccc3c2Br)CCCCC1 | – | – | 2920 | – | – | – | – | – | – | – | – | 2730 | – | – | – | – | – | – | –
NC(=O)c1ccc2c(Br)c(C3(O)CCCCC3)[se][n+]2c1 | 1270 | 2300 | > 1000 | 600 | 1500 | – | – | – | – | – | – | – | – | – | – | – | – | – | –
O=C(O)c1ccc2c(Br)c(C3(O)CCCCC3)[se][n+]2c1 | 3550 | > 10000 | > 1000 | 3260 | 3850 | – | – | – | – | – | – | – | – | – | – | – | – | – | –
NC(=O)c1cccc2c(Br)c(C3(O)CCCCC3)[se][n+]12 | 2630 | 3850 | > 1000 | 1880 | 1330 | – | – | – | – | – | – | – | – | – | – | – | – | – | –
COC(=O)c1ccc2c(Br)c(C3(O)CCCCC3)[se][n+]2c1 | 890 | 870 | 545 | 250 | 310 | 10 | 16 | 39 | 1310 | 700 | 430 | 303 | – | – | – | – | – | – | –
COC(=O)c1cc2c(Br)c(C3(O)CCCCC3)[se][n+]2cc1F | 1680 | 1080 | 897 | 1160 | 1190 | 7 | 29 | 15 | 2930 | 2340 | 1380 | – | – | – | – | – | – | – | –
NC(=O)c1cc[n+]2[se]c(C3(O)CCC(F)(F)CC3)c(Br)c2c1 | 1410 | 1000 | 362 | 1430 | 600 | 13 | 26 | 40 | 3170 | 1250 | 1360 | 542 | – | – | – | – | – | – | –
COC(=O)c1cc[n+]2[se]c(C3([O-])CCCC3)c(Br)c2c1 | 770 | 360 | 380 | 480 | 410 | 6 | 20 | 42 | 8700 | 2040 | 1660 | 517 | – | – | – | – | – | – | –
COc1cccc2c1C(=O)c1c(O)c3c(c(O)c1C2=O)C[C@@](O)(C(=O)CO)C[C@@H]3O[C@H]1C[C@H](N)[C@H](O)[C@H](C)O1 [DOXORUBICIN] | 3900 | 470 | – | 320 | 1080 | – | – | – | 230 | – | 410 | – | 65 | – | – | – | – | – | –
COC(=O)c1cc[n+]2[se]c(C3([O-])CCC3)c(Br)c2c1 | 2970 | 2800 | 854 | 3240 | 3030 | 7 | 26 | 20 | 9120 | > 10000 | 6510 | 603 | – | – | – | – | – | – | –
NC(=O)c1cc[n+]2[se]c(C3(O)CCCCC3)c(Br)c2c1 | 1410 | 2220 | 420 | 1000 | 600 | 6 | 15 | 37 | 2810 | 1410 | 1150 | 572 | – | Dose-Dependent Effect | Dose-Dependent Effect | 38 | Dose-Dependent Effect | 43.2 | 69.1
O=c1cc(-c2ccc(O)cc2)oc2cc(O)cc(O)c12 [APIGENIN] | – | – | > 20000 | – | – | – | – | – | – | – | – | > 20000 | – | – | – | – | – | – | –
COC(=O)c1cc[n+]2[se]c(C3(O)C4CC5CC(C4)CC3C5)c(Br)c2c1 (stereo not drawn) | 4760 | 6870 | > 1000 | 6180 | 2890 | – | – | – | – | – | – | – | – | – | – | – | – | – | –
O=C(O)c1cc[n+]2[se]c(C3(O)CCCCC3)c(Br)c2c1 | 7820 | > 10000 | 1060 | 6610 | 5820 | 9 | 4 | 5 | 7030 | 6810 | 6120 | – | – | – | – | – | – | – | –
[2H]C([2H])([2H])OC(=O)c1cc[n+]2[se]c(C3(O)CCCCC3)c(Br)c2c1.[Cl-] | 640 | 380 | 478 | 490 | 540 | – | – | – | 1200 | 1110 | 400 | 610 | – | – | – | – | – | – | –
COC(=O)c1cc[n+]2[se]c(C3(O)CCC(F)(F)CC3)c(Br)c2c1 | 1060 | 280 | 637 | 480 | 240 | 2 | 11 | 29 | 1160 | 1480 | 480 | 572 | – | – | – | – | – | – | –
CCCCCCCCCCCCCC(C)(O)c1[se][n+]2ccc(C(N)=O)cc2c1Br (stereo not drawn) | 1910 | 1010 | 901 | 2000 | 910 | 9 | 23 | 29 | 3720 | 4320 | 2420 | – | – | – | – | – | – | – | –
